From patent publication US10015967B2, “Form of isoxadifen-ethyl, a process for its preparation and use of the same” (ROTAM AGROCHEM INTERNATIONAL COMPANY LIMITED, priority 2015, dated 2018) come the findings set out here.

Data set [1] is described as follows: Stability of isoxadifen-ethyl (hydrolysis in water or during storage), general statement. The data set is classed as physicochemical. Particulars: dissolved or dispersed in water; storage with exposure to moisture.
Data set [2] can be described thus: Stability test: aging of formulation samples in heated ovens per CIPAC MT 46.3, isoxadifen-ethyl content by HPLC. Type of data set: physicochemical. As to conditions: for RPH % (relative percentage of hydrolysis): stored at 54° C. for 1 week. As to the method: The stability of the isoxadifen-ethyl in these compositions was determined by aging samples in heated ovens having the same atmosphere therein, and then comparing the isoxadifen-ethyl content before and after aging to determine relative percentage of hydrolysis (RPH). RPH was calculated by the following equation: […]
Isoxadifen-ethyl content was determined by assaying the compositions with high-pressure liquid chromatography (HPLC) using reverse phase columns and eluants.
Samples prepared in Examples 4, 5 and 6 were stored at 54° C. for 1 week. The procedures are followed according to CIPAC MT 46.3. The concentration of isoxadifen-ethyl was measured at the end of each storage time by HPLC.

Setting [3] is: Example 4 oil based suspension concentrate (OD) with tribenuron-methyl, 10 weight % isoxadifen-ethyl.
The mark [4] stands for this setting: Example 5 soluble granules (SG) with metsulfuron-methyl, 7 weight % isoxadifen-ethyl.
Setting [5] is: Example 6 water dispersible granules (WG) with metsulfuron-methyl, 7 weight % isoxadifen-ethyl.

Structures are written as SMILES.

Consider `CCOC(=O)C1=NOC(c2ccccc2)(c2ccccc2)C1` [Amorphous isoxadifen-ethyl, Ethyl 4,5-dihydro-5,5-diphenyl-3-isoxazolecarboxylate], for which the “stability (hydrolysis)” value in data set [1] is reported as “highly unstable”. The “RPH % (relative percentage of hydrolysis)” value in data set [2] (setting [3]) was 50%; in data set [2] (setting [4]) it was 40%; in data set [2] (setting [5]), 45%.

In the case of `CCOC(=O)C1=NOC(c2ccccc2)(c2ccccc2)C1` [Isoxadifen-ethyl, crystalline modification I] [Ethyl 4,5-dihydro-5,5-diphenyl-3-isoxazolecarboxylate], the “RPH % (relative percentage of hydrolysis)” value in data set [2] (setting [3]), in data set [2] (setting [4]) and in data set [2] (setting [5]) was 0% in each case. The “stability when mixing with sulfonylurea herbicides in formulations” value in data set [2] (relative to formulations containing the amorphous form) is “significant increase in its stability”.
